The MIC is the lowest concentration that inhibits growth of the organism.

Converted amounts (≈) assume the structure as drawn. Read-outs that look alike come from different tables or passages of the source.

Series [1] has as its system Propionibacterium acnes (ATCC 11827). In words: Minimum inhibitory concentration (MIC) against Propionibacterium acnes (Test Example 1). The class given is cell-based. How it is done:
The minimum inhibitory concentration (MIC) of caryophyllene, cedrene, longifolene, and thujopsene obtained in Preparation Example against Propionibacterium acnes (ATCC 11827) was determined as follows.
The test compound was added to a 4.6% ABCM bouillon aqueous solution (prepared by dissolving 46 g of an ABCM bouillon medium produced by Eiken Kagaku K. K. in 1 l of distilled water) in a concentration of 100 μg/ml, and the solution was stepwise diluted two times with the same medium, followed by sterilization.
A 5 ml aliquot of the solution was put in a test tube and inoculated with 0.1 ml of the culture of Propionibacterium acnes which had been preliminarily cultured so as to have a cell density of 5×10^8 cells/ml. The system was static-cultured under anaerobic conditions at 37° C. for 48 hours, and the turbidity of the cultured system was measured at a wavelength of 600 nm to obtain MIC (μg/ml).

In another series the test system is skin. To be noted: conventional use in acne vulgaris; cited from earlier work.
In another series the test system is several fungi. The note with it: Indian Perfumer, 28(2), 82-87 (1984); cited from earlier work.
The test system of series [2] is Escherichia coli. To be noted: Indian Perfumer, 28(2), 82-87 (1984); cited from earlier work.
For the next series, the system named is various molds. To be noted: J. Antibact. Antifung. Agents, 8(1), 3-6 (1980); cited from earlier work.
For another series, the system named is Bacillus subtilis. The note with it: J. Antibact. Antifung. Agents, 8(1), 3-6 (1980); cited from earlier work.
In series [3] the test system is Escherichia coli. The note with it: J. Antibact. Antifung. Agents, 8(1), 3-6 (1980); cited from earlier work.
Another series has as its system Pseudomonas aeruginosa. To be noted: J. Antibact. Antifung. Agents, 8(1), 3-6 (1980); cited from earlier work.
The mark [4] stands for this setting: Cutibacterium acnes, ATCC11827, anaerobic, 37° C., 48 hours, turbidity at 600 nm, read-out: MIC.

Regarding `C=C1[C@H]2CC[C@@H]3[C@H]2C(C)(C)CCC[C@]13C` [Longifolene], the MIC in series [1] (setting [4]) came to 1.57 µg/mL (≈ 7.68 µM).
With `[H]/N=C(\N/C(=N/[H])NCCCCCCNC(=N)NC(=N)Nc1ccc(Cl)cc1)Nc1ccc(Cl)cc1` [Chlorhexidine Gluconate], in the series with skin, the side effects result is “side effects of causing erythema or exfoliation, causing extreme skin roughening and skin irritation”.
As for `C=C1CC/C=C(/C)CC[C@@H]2[C@@H]1CC2(C)C` [Caryophyllene], the lowest concentration to inhibit growth in series [1] (Cutibacterium acnes, ATCC11827, 48 h) (MIC) was 3.13 µg/mL (≈ 15.3 µM). Also, the antimicrobial activity result in the series with several fungi and with Escherichia coli [2] was “no activity” in each case.
Cedrene had a minimum inhibitory concentration (MIC) in series [1] (anaerobic, 37° C., 48 hours, turbidity at 600 nm) of 1.57 µg/mL.
As for `CC1=CC[C@]2(C)CCCC(C)(C)[C@@]23C[C@@H]13` [Thujopsene], the minimal inhibitory concentration (MIC) in series [1] (setting [4]) amounted to 6.25 µg/mL (≈ 30.6 µM). In addition, the antimicrobial activity result with various molds was “any substantial antimicrobial activity on various molds, Bacillus subtilis, Escherichia coli, and Pseudomonas aeruginosa was not exhibited”; in the series on Bacillus subtilis, “any substantial antimicrobial activity on various molds, Bacillus subtilis, Escherichia coli, and Pseudomonas aeruginosa was not exhibited”; with Escherichia coli [3], “any substantial antimicrobial activity on various molds, Bacillus subtilis, Escherichia coli, and Pseudomonas aeruginosa was not exhibited”; with Pseudomonas aeruginosa it was “any substantial antimicrobial activity on various molds, Bacillus subtilis, Escherichia coli, and Pseudomonas aeruginosa was not exhibited”.
With `C=CCc1ccc(O)c(OC)c1` [Eugenol, reference compound], the MIC in series [1] (setting [4]) was determined as 50 µg/mL (≈ 304 µM). The antimicrobial activity result in the series with several fungi and with Escherichia coli [2] was “strong antimicrobial activity” in each case.

Source of the values: patent US5200429A, “Acne vulgaris treating” (Takasago International Corporation, priority 1990, dated 1993).
